Measurements published in PubChem BioAssay AID1259407 (Chemical Carcinogenesis Research Information System (CCRIS), 2018).
Active and inactive are the calls of the source. No rule for the calls is given here.

Test system: CCRIS mutagenicity, Ames/micronucleus/aberration tests
Assay: CCRIS mutagenicity studies

For CCC1CO1 (stereo unspecified), the mutagenic call (End Point: IN VITRO CHROMOSOMAL ABERRATIONS, Test System: CHO CELLS, Metabolic Activation: NONE) was “inactive; negative; authors report a positive response at the highest dose but few cells c”, the mutagenic call (End Point: IN VITRO CHROMOSOMAL ABERRATIONS, Test System: HUMAN PERIPHERAL LYMPHOCYTES, Metabolic Activation: NONE, Method: FISH (DUAL COLOR FOR CHROMOSOMES 7, 8, 12 AND X)) was “active; positive (hyperdiploidy of chromosomes 12 and x)” and the mutagenic call (End Point: IN VITRO MICRONUCLEUS, Test System: HUMAN PERIPHERAL LYMPHOCYTES, Metabolic Activation: NONE) was “active; positive”. For the same compound, the mutagenic call (Test System: AMES SALMONELLA TYPHIMURIUM, Strain/Indicator: TA98, Metabolic Activation: HAMSTER, LIVER, S-9, AROCLOR 1254, Method: PREINCUBATION) was “inactive; negative”, the mutagenic call (Test System: AMES SALMONELLA TYPHIMURIUM, Strain/Indicator: TA98, Metabolic Activation: NONE, Method: FLUCTUATION (MICROTITER)) was “inactive; negative” and the mutagenic call (Test System: AMES SALMONELLA TYPHIMURIUM, Strain/Indicator: TA98, Metabolic Activation: NONE, Method: PREINCUBATION) was “inactive; negative”. For the same compound, the mutagenic call (Test System: AMES SALMONELLA TYPHIMURIUM, Strain/Indicator: TA98, Metabolic Activation: NONE, Method: STANDARD PLATE) was “inactive; negative”, the mutagenic call (Test System: AMES SALMONELLA TYPHIMURIUM, Strain/Indicator: TA98, Metabolic Activation: RAT LIVER S-9, AROCLOR 1254, Method: FLUCTUATION (MICROTITER)) was “inactive; negative” and the mutagenic call (Test System: AMES SALMONELLA TYPHIMURIUM, Strain/Indicator: TA98, Metabolic Activation: RAT, LIVER, S-9, AROCLOR 1254, Method: PREINCUBATION) was “inactive; negative”. The mutagenic call (Test System: AMES SALMONELLA TYPHIMURIUM, Strain/Indicator: TA100, Metabolic Activation: HAMSTER, LIVER, S-9, AROCLOR 1254, Method: PREINCUBATION) was “active; positive”, the mutagenic call (Test System: AMES SALMONELLA TYPHIMURIUM, Strain/Indicator: TA100, Metabolic Activation: NONE, Method: PREINCUBATION) was “active; positive” and the mutagenic call (Test System: AMES SALMONELLA TYPHIMURIUM, Strain/Indicator: TA100, Metabolic Activation: RAT, LIVER, S-9, AROCLOR 1254, Method: PREINCUBATION) was “active; positive”. For the same compound, the mutagenic call (Test System: AMES SALMONELLA TYPHIMURIUM, Strain/Indicator: TA1535, Metabolic Activation: HAMSTER, LIVER, S-9, AROCLOR 1254, Method: PREINCUBATION) was “active; positive”, the mutagenic call (Test System: AMES SALMONELLA TYPHIMURIUM, Strain/Indicator: TA1535, Metabolic Activation: NONE, Method: PREINCUBATION) was “active; positive” and the mutagenic call (Test System: AMES SALMONELLA TYPHIMURIUM, Strain/Indicator: TA1535, Metabolic Activation: NONE, Method: STANDARD PLATE) was “active; positive”. For the same compound, the mutagenic call (Test System: AMES SALMONELLA TYPHIMURIUM, Strain/Indicator: TA1535, Metabolic Activation: RAT, LIVER, S-9, AROCLOR 1254, Method: PREINCUBATION) was “active; positive”, the mutagenic call (Test System: AMES SALMONELLA TYPHIMURIUM, Strain/Indicator: TA1537, Metabolic Activation: HAMSTER, LIVER, S-9, AROCLOR 1254, Method: PREINCUBATION) was “inactive; negative” and the mutagenic call (Test System: AMES SALMONELLA TYPHIMURIUM, Strain/Indicator: TA1537, Metabolic Activation: NONE, Method: FLUCTUATION (MICROTITER)) was “inactive; negative”. For the same compound, the mutagenic call (Test System: AMES SALMONELLA TYPHIMURIUM, Strain/Indicator: TA1537, Metabolic Activation: NONE, Method: PREINCUBATION) was “inactive; negative”, the mutagenic call (Test System: AMES SALMONELLA TYPHIMURIUM, Strain/Indicator: TA1537, Metabolic Activation: RAT LIVER S-9, AROCLOR 1254, Method: FLUCTUATION (MICROTITER)) was “inactive; negative” and the mutagenic call (Test System: AMES SALMONELLA TYPHIMURIUM, Strain/Indicator: TA1537, Metabolic Activation: RAT, LIVER, S-9, AROCLOR 1254, Method: PREINCUBATION) was “inactive; negative”. For the same compound, the mutagenic call (Test System: AMES SALMONELLA TYPHIMURIUM, Strain/Indicator: TA7001, Metabolic Activation: NONE, Method: FLUCTUATION (MICROTITER)) was “inactive; negative”, the mutagenic call (Test System: AMES SALMONELLA TYPHIMURIUM, Strain/Indicator: TA7001, Metabolic Activation: RAT LIVER S-9, AROCLOR 1254, Method: FLUCTUATION (MICROTITER)) was “inactive; negative” and the mutagenic call (Test System: AMES SALMONELLA TYPHIMURIUM, Strain/Indicator: TA7002, Metabolic Activation: NONE, Method: FLUCTUATION (MICROTITER)) was “inactive; negative”. The mutagenic call (Test System: AMES SALMONELLA TYPHIMURIUM, Strain/Indicator: TA7002, Metabolic Activation: RAT LIVER S-9, AROCLOR 1254, Method: FLUCTUATION (MICROTITER)) was “inactive; negative”, the mutagenic call (Test System: AMES SALMONELLA TYPHIMURIUM, Strain/Indicator: TA7003, Metabolic Activation: NONE, Method: FLUCTUATION (MICROTITER)) was “inactive; negative” and the mutagenic call (Test System: AMES SALMONELLA TYPHIMURIUM, Strain/Indicator: TA7003, Metabolic Activation: RAT LIVER S-9, AROCLOR 1254, Method: FLUCTUATION (MICROTITER)) was “inactive; negative”. The mutagenic call (Test System: AMES SALMONELLA TYPHIMURIUM, Strain/Indicator: TA7004, Metabolic Activation: NONE, Method: FLUCTUATION (MICROTITER)) was “active; positive”, the mutagenic call (Test System: AMES SALMONELLA TYPHIMURIUM, Strain/Indicator: TA7004, Metabolic Activation: RAT LIVER S-9, AROCLOR 1254, Method: FLUCTUATION (MICROTITER)) was “inactive; negative” and the mutagenic call (Test System: AMES SALMONELLA TYPHIMURIUM, Strain/Indicator: TA7005, Metabolic Activation: NONE, Method: FLUCTUATION (MICROTITER)) was “inactive; negative”. For the same compound, the mutagenic call (Test System: AMES SALMONELLA TYPHIMURIUM, Strain/Indicator: TA7005, Metabolic Activation: RAT LIVER S-9, AROCLOR 1254, Method: FLUCTUATION (MICROTITER)) was “inactive; negative”, the mutagenic call (Test System: AMES SALMONELLA TYPHIMURIUM, Strain/Indicator: TA7006, Metabolic Activation: NONE, Method: FLUCTUATION (MICROTITER)) was “inactive; negative” and the mutagenic call (Test System: AMES SALMONELLA TYPHIMURIUM, Strain/Indicator: TA7006, Metabolic Activation: RAT LIVER S-9, AROCLOR 1254, Method: FLUCTUATION (MICROTITER)) was “inactive; negative”. For the same compound, the mutagenic call (Test System: E. COLI, Strain/Indicator: WP2 UVRA, Metabolic Activation: HAMSTER, LIVER, S-9, AROCLOR 1254, Method: PREINCUBATION) was “inactive; negative”, the mutagenic call (Test System: E. COLI, Strain/Indicator: WP2 UVRA, Metabolic Activation: HAMSTER, LIVER, S-9, AROCLOR 1254, Method: STANDARD PLATE) was “inactive; negative” and the mutagenic call (Test System: E. COLI, Strain/Indicator: WP2 UVRA, Metabolic Activation: HAMSTER, LIVER, S-9, Method: STANDARD PLATE) was “inactive; negative”. The mutagenic call (Test System: E. COLI, Strain/Indicator: WP2 UVRA, Metabolic Activation: MOUSE, LIVER, S-9, AROCLOR 1254, Method: PREINCUBATION) was “inactive; negative”, the mutagenic call (Test System: E. COLI, Strain/Indicator: WP2 UVRA, Metabolic Activation: MOUSE, LIVER, S-9, AROCLOR 1254, Method: STANDARD PLATE) was “inactive; negative” and the mutagenic call (Test System: E. COLI, Strain/Indicator: WP2 UVRA, Metabolic Activation: MOUSE, LIVER, S-9, Method: PREINCUBATION) was “inactive; negative”. For the same compound, the mutagenic call (Test System: E. COLI, Strain/Indicator: WP2 UVRA, Metabolic Activation: MOUSE, LIVER, S-9, Method: STANDARD PLATE) was “inactive; negative”, the mutagenic call (Test System: E. COLI, Strain/Indicator: WP2 UVRA, Metabolic Activation: NONE, Method: PREINCUBATION) was “inactive; negative” and the mutagenic call (Test System: E. COLI, Strain/Indicator: WP2 UVRA, Metabolic Activation: NONE, Method: STANDARD PLATE) was “inactive; negative”. The mutagenic call (Test System: E. COLI, Strain/Indicator: WP2 UVRA, Metabolic Activation: RAT, LIVER, S-9, AROCLOR 1254, Method: PREINCUBATION) was “inactive; negative”, the mutagenic call (Test System: E. COLI, Strain/Indicator: WP2 UVRA, Metabolic Activation: RAT, LIVER, S-9, AROCLOR 1254, Method: STANDARD PLATE) was “inactive; negative” and the mutagenic call (Test System: E. COLI, Strain/Indicator: WP2 UVRA, Metabolic Activation: RAT, LIVER, S-9, Method: PREINCUBATION) was “inactive; negative”. The mutagenic call (Test System: E. COLI, Strain/Indicator: WP2 UVRA, Metabolic Activation: RAT, LIVER, S-9, Method: STANDARD PLATE) was “inactive; negative”.
